Tests used:
Type in all cases: in vivo
[1] = tested on: upland rice (Oryza sp., var.Cocodrie, RICE); assay: Greenhouse herbicide screen, pre-emerge application, crop damage rating; conditions: PRE emergent, 14 days after application, rating scale 0-100
Summary of the method: (§1)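 Acetone-dissolved compounds are sprayed over pots at 15 to 1000 g ai/ha with a flat fan nozzle 40–45 cm above the target. Pre-emerge pots are top-watered immediately to incorporate; post-emerge pots are bottom-watered. Plants are rated 0–100 after 14 days.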

[2] = tested on: field corn (Zea mays L., var. Dekalb 535, CORN); assay: as above; conditions: PRE emergent, 14 days after application, rating scale 0-100
Summary of the method: as §1

[3] = tested on: large crabgrass (Digitaria sanguinalis, DIGSA); assay: Greenhouse herbicide screen, post-emerge application, phytotoxicity rating; conditions: POST emergent, 14 days after application, scale 0-100
Summary of the method: as §1

[4] = tested on: cocklebur (Xanthium strumarium, XANST); assay: as above; conditions: POST emergent, 14 days after application, scale 0-100
Summary of the method: as §1

[5] = tested on: ivyleaf morningglory (Ipomoea hederacea, IPOHE); assay: as above; conditions: POST emergent, 14 days after application, scale 0-100
Summary of the method: as §1

[6] = tested on: sicklepod (Cassia obtusifolia, CASOB); assay: as above; conditions: POST emergent, 14 days after application, scale 0-100
Summary of the method: as §1

[7] = tested on: johnsongrass (Sorghum halepense, SORHA); assay: as above; conditions: POST emergent, 14 days after application, scale 0-100
Summary of the method: as §1

[8] = tested on: redroot pigweed (Amaranthus retrofiexus, AMARE); assay: as above; conditions: POST emergent, 14 days after application
Summary of the method: as §1

[9] = tested on: common ragweed (Ambrosia artemisiifolia L., AMBEL); assay: as above; conditions: POST emergent, 14 days after application, scale 0-100
Summary of the method: as §1

[10] = tested on: barnyardgrass (Echinochloa crus-galli, ECHCG); assay: as above; conditions: POST emergent, 14 days after application, scale 0-100
Summary of the method: as §1

[11] = tested on: green foxtail (Setaria viridis, SETVI); assay: as above; conditions: POST emergent, 14 days after application, scale 0-100
Summary of the method: as §1

[12] = tested on: lambsquarters (Chenopodium album, CHEAL); assay: as above; conditions: POST emergent, 14 days after application, scale 0-100
Summary of the method: as §1

[13] = tested on: velvetleaf (Abutilon theophrasti, ABUTH); assay: as above; conditions: POST emergent, 14 days after application, scale 0-100
Summary of the method: as §1

[14] = tested on: upland rice (Oryza sp., var.Cocodrie, RICE); assay: Greenhouse herbicide screen, post-emerge application, crop damage rating; conditions: POST emergent, 14 days after application, scale 0-100
Summary of the method: as §1

[15] = tested on: field corn (Zea mays L., var. Dekalb 535, CORN); assay: as above; conditions: POST emergent, 14 days after application, scale 0-100
Summary of the method: as §1

[16] = tested on: large crabgrass (Digitaria sanguinalis, DIGSA); assay: Greenhouse herbicide screen, pre-emerge application, phytotoxicity rating; conditions: PRE emergent, 14 days after application, rating scale 0-100
Summary of the method: as §1

[17] = tested on: cocklebur (Xanthium strumarium, XANST); assay: as above; conditions: PRE emergent, 14 days after application, rating scale 0-100
Summary of the method: as §1

[18] = tested on: ivyleaf morningglory (Ipomoea hederacea, IPOHE); assay: as above; conditions: PRE emergent, 14 days after application, rating scale 0-100
Summary of the method: as §1

[19] = tested on: sicklepod (Cassia obtusifolia, CASOB); assay: as above; conditions: PRE emergent, 14 days after application, rating scale 0-100
Summary of the method: as §1

[20] = tested on: johnsongrass (Sorghum halepense, SORHA); assay: as above; conditions: PRE emergent, 14 days after application, rating scale 0-100
Summary of the method: as §1

[21] = tested on: redroot pigweed (Amaranthus retrofiexus, AMARE); assay: as above; conditions: PRE emergent, 14 days after application, rating scale 0-100
Summary of the method: as §1

[22] = tested on: common ragweed (Ambrosia artemisiifolia L., AMBEL); assay: as above; conditions: PRE emergent, 14 days after application, rating scale 0-100
Summary of the method: as §1

[23] = tested on: barnyardgrass (Echinochloa crus-galli, ECHCG); assay: as above; conditions: PRE emergent, 14 days after application, rating scale 0-100
Summary of the method: as §1

[24] = tested on: green foxtail (Setaria viridis, SETVI); assay: as above; conditions: PRE emergent, 14 days after application, rating scale 0-100
Summary of the method: as §1

[25] = tested on: lambsquarters (Chenopodium album, CHEAL); assay: as above; conditions: PRE emergent, 14 days after application, rating scale 0-100
Summary of the method: as §1

[26] = tested on: velvetleaf (Abutilon theophrasti, ABUTH); assay: as above; conditions: PRE emergent, 14 days after application, rating scale 0-100
Summary of the method: as §1

[27] = 63 g ai/ha, scale 0-100 (0 no damage, 100 complete death)

## CN1CCN(NC(=O)c2cc(-n3c(=O)cc(C(F)(F)F)n(C)c3=S)c(F)cc2Cl)CC1 [Compound 1-14]
[1]; 63 g ai/ha
  crop damage rating RICE: 0
[1]; 250 g ai/ha
  crop damage rating RICE: 50
[2]; 63 g ai/ha
  crop damage rating CORN: 0
[2]; 250 g ai/ha
  crop damage rating CORN: 0
[3]; 63 g ai/ha
  phytotoxicity rating DIGSA: 0
[3]; 250 g ai/ha
  phytotoxicity rating DIGSA: 0
[4]; 63 g ai/ha
  phytotoxicity rating XANST: 70
[4]; 250 g ai/ha
  phytotoxicity rating XANST: 70
[5]; 63 g ai/ha
  phytotoxicity rating IPOHE: 100
[5]; 250 g ai/ha
  phytotoxicity rating IPOHE: 100
[6]; 63 g ai/ha
  phytotoxicity rating CASOB: 0
[6]; 250 g ai/ha
  phytotoxicity rating CASOB: 0
[7]; 63 g ai/ha
  phytotoxicity rating SORHA: 0
[7]; 250 g ai/ha
  phytotoxicity rating SORHA: 0
[8]; [27]
  phytotoxicity rating AMARE: 0
[8]; 250 g ai/ha, scale 0-100
  phytotoxicity rating AMARE: 30
[9]; 63 g ai/ha
  phytotoxicity rating AMBEL: 0
[9]; 250 g ai/ha
  phytotoxicity rating AMBEL: 50
[10]; 63 g ai/ha
  phytotoxicity rating ECHCO: 0
[10]; 250 g ai/ha
  phytotoxicity rating ECHCO: 0
[11]; 63 g ai/ha
  phytotoxicity rating SETVI: 0
[11]; 250 g ai/ha
  phytotoxicity rating SETVI: 0
[12]; 63 g ai/ha
  phytotoxicity rating CHEAL: 0
[12]; 250 g ai/ha
  phytotoxicity rating CHEAL: 70
[13]; 63 g ai/ha
  phytotoxicity rating ABUTH: 0
[13]; 250 g ai/ha
  phytotoxicity rating ABUTH: 35
[14]; 63 g ai/ha
  crop damage rating RICE: 0
[14]; 250 g ai/ha
  crop damage rating RICE: 0
[15]; 63 g ai/ha
  crop damage rating CORN: 0
[15]; 250 g ai/ha
  crop damage rating CORN: 50
[16]; 63 g ai/ha
  phytotoxicity rating DIGSA: 55
[16]; 250 g ai/ha
  phytotoxicity rating DIGSA: 70
[17]; 63 g ai/ha
  phytotoxicity rating XANST: 40
[17]; 250 g ai/ha
  phytotoxicity rating XANST: 65
[18]; 63 g ai/ha
  phytotoxicity rating IPOHE: 10
[18]; 250 g ai/ha
  phytotoxicity rating IPOHE: 65
[19]; 63 g ai/ha
  phytotoxicity rating CASOB: 0
[19]; 250 g ai/ha
  phytotoxicity rating CASOB: 50
[20]; 63 g ai/ha
  phytotoxicity rating SORHA: 70
[20]; 250 g ai/ha
  phytotoxicity rating SORHA: 95
[21]; 63 g ai/ha
  phytotoxicity rating AMARE: 95
[21]; 250 g ai/ha
  phytotoxicity rating AMARE: 100
[22]; 63 g ai/ha
  phytotoxicity rating AMBEL: 35
[22]; 250 g ai/ha
  phytotoxicity rating AMBEL: 70
[23]; 63 g ai/ha
  phytotoxicity rating ECHCG: 0
[23]; 250 g ai/ha
  phytotoxicity rating ECHCG: 70
[24]; 63 g ai/ha
  phytotoxicity rating SETVI: 0
[24]; 250 g ai/ha
  phytotoxicity rating SETVI: 55
[25]; 63 g ai/ha
  phytotoxicity rating CHEAL: 100
[25]; 250 g ai/ha
  phytotoxicity rating CHEAL: 100
[26]; 63 g ai/ha
  phytotoxicity rating ABUTH: 30
[26]; 250 g ai/ha
  phytotoxicity rating ABUTH: 90

## Cn1c(C(F)(F)F)cc(=O)n(-c2cc(C(=O)NN=C(c3ccccc3)c3ccccc3)c(Cl)cc2F)c1=O [Compound 6-15]
[1]; 63 g ai/ha
  crop damage rating RICE: 0
[1]; 250 g ai/ha
  crop damage rating RICE: 0
[2]; 63 g ai/ha
  crop damage rating CORN: 0
[2]; 250 g ai/ha
  crop damage rating CORN: 0
[3]; 63 g ai/ha
  phytotoxicity rating DIGSA: 20
[3]; 250 g ai/ha
  phytotoxicity rating DIGSA: 50
[4]; 63 g ai/ha
  phytotoxicity rating XANST: 70
[4]; 250 g ai/ha
  phytotoxicity rating XANST: 75
[5]; 63 g ai/ha
  phytotoxicity rating IPOHE: 75
[5]; 250 g ai/ha
  phytotoxicity rating IPOHE: 100
[6]; 63 g ai/ha
  phytotoxicity rating CASOB: 70
[6]; 250 g ai/ha
  phytotoxicity rating CASOB: 75
[7]; 63 g ai/ha
  phytotoxicity rating SORHA: 0
[7]; 250 g ai/ha
  phytotoxicity rating SORHA: 15
[8]; [27]
  phytotoxicity rating AMARE: 90
[8]; 250 g ai/ha, scale 0-100
  phytotoxicity rating AMARE: 90
[9]; 63 g ai/ha
  phytotoxicity rating AMBEL: 80
[9]; 250 g ai/ha
  phytotoxicity rating AMBEL: 80
[10]; 63 g ai/ha
  phytotoxicity rating ECHCO: 50
[10]; 250 g ai/ha
  phytotoxicity rating ECHCO: 65
[11]; 63 g ai/ha
  phytotoxicity rating SETVI: 55
[11]; 250 g ai/ha
  phytotoxicity rating SETVI: 60
[12]; 63 g ai/ha
  phytotoxicity rating CHEAL: 90
[12]; 250 g ai/ha
  phytotoxicity rating CHEAL: 90
[13]; 63 g ai/ha
  phytotoxicity rating ABUTH: 80
[13]; 250 g ai/ha
  phytotoxicity rating ABUTH: 98
[14]; 63 g ai/ha
  crop damage rating RICE: 0
[14]; 250 g ai/ha
  crop damage rating RICE: 0
[15]; 63 g ai/ha
  crop damage rating CORN: 20
[15]; 250 g ai/ha
  crop damage rating CORN: 25
[16]; 63 g ai/ha
  phytotoxicity rating DIGSA: 85
[16]; 250 g ai/ha
  phytotoxicity rating DIGSA: 99
[17]; 63 g ai/ha
  phytotoxicity rating XANST: 30
[17]; 250 g ai/ha
  phytotoxicity rating XANST: 60
[18]; 63 g ai/ha
  phytotoxicity rating IPOHE: 15
[18]; 250 g ai/ha
  phytotoxicity rating IPOHE: 95
[19]; 63 g ai/ha
  phytotoxicity rating CASOB: 65
[19]; 250 g ai/ha
  phytotoxicity rating CASOB: 99
[20]; 63 g ai/ha
  phytotoxicity rating SORHA: 40
[20]; 250 g ai/ha
  phytotoxicity rating SORHA: 95
[21]; 63 g ai/ha
  phytotoxicity rating AMARE: 100
[21]; 250 g ai/ha
  phytotoxicity rating AMARE: 100
[22]; 63 g ai/ha
  phytotoxicity rating AMBEL: 70
[22]; 250 g ai/ha
  phytotoxicity rating AMBEL: 95
[23]; 63 g ai/ha
  phytotoxicity rating ECHCG: 0
[23]; 250 g ai/ha
  phytotoxicity rating ECHCG: 35
[24]; 63 g ai/ha
  phytotoxicity rating SETVI: 75
[24]; 250 g ai/ha
  phytotoxicity rating SETVI: 98
[25]; 63 g ai/ha
  phytotoxicity rating CHEAL: 100
[25]; 250 g ai/ha
  phytotoxicity rating CHEAL: 100
[26]; 63 g ai/ha
  phytotoxicity rating ABUTH: 100
[26]; 250 g ai/ha
  phytotoxicity rating ABUTH: 100

## CC(=NN=C(OS(C)(=O)=O)c1cc(-n2c(=O)cc(C(F)(F)F)n(C)c2=O)c(F)cc1Cl)C(C)(C)C [Compound 5-3]
[1]; 63 g ai/ha
  crop damage rating RICE: 30
[2]; 63 g ai/ha
  crop damage rating CORN: 50
[3]; 63 g ai/ha
  phytotoxicity rating DIGSA: 60
[4]; 63 g ai/ha
  phytotoxicity rating XANST: 70
[5]; 63 g ai/ha
  phytotoxicity rating IPOHE: 100
[6]; 63 g ai/ha
  phytotoxicity rating CASOB: 50
[7]; 63 g ai/ha
  phytotoxicity rating SORHA: 30
[8]; [27]
  phytotoxicity rating AMARE: 99
[9]; 63 g ai/ha
  phytotoxicity rating AMBEL: 90
[10]; 63 g ai/ha
  phytotoxicity rating ECHCO: 100
[11]; 63 g ai/ha
  phytotoxicity rating SETVI: 60
[12]; 63 g ai/ha
  phytotoxicity rating CHEAL: 80
[13]; 63 g ai/ha
  phytotoxicity rating ABUTH: 95
[14]; 63 g ai/ha
  crop damage rating RICE: 10
[15]; 63 g ai/ha
  crop damage rating CORN: 60
[16]; 63 g ai/ha
  phytotoxicity rating DIGSA: 60
[17]; 63 g ai/ha
  phytotoxicity rating XANST: 30
[18]; 63 g ai/ha
  phytotoxicity rating IPOHE: 80
[19]; 63 g ai/ha
  phytotoxicity rating CASOB: 70
[20]; 63 g ai/ha
  phytotoxicity rating SORHA: 90
[21]; 63 g ai/ha
  phytotoxicity rating AMARE: 100
[22]; 63 g ai/ha
  phytotoxicity rating AMBEL: 60
[23]; 63 g ai/ha
  phytotoxicity rating ECHCG: 30
[24]; 63 g ai/ha
  phytotoxicity rating SETVI: 55
[25]; 63 g ai/ha
  phytotoxicity rating CHEAL: 100
[26]; 63 g ai/ha
  phytotoxicity rating ABUTH: 100

— patent US6770597B2, “Benzohydrazide derivatives as herbicides and desiccant compositions containing them” (Ishihara Sangyo Kaisha, Ltd., priority 2002, dated 2004)
